Measured values taken from patent US5821224A, “Antimicrobial peptides from bovine neutrophils” (Regents of the University of California, priority 1994, dated 1998).
Entries after “also recorded” stand apart in the source; their conditions may differ. Bridges are numbered along the chain shown (N, C = ends). Where no end group is shown, it is not given here. [ ]: non-standard residue; d: D form. pGlu = O=C1CC[C@@H](C(=O)O)N1

What was measured:
Escherichia coli ML35 = assay: Radial diffusion antibacterial assay, E. coli ML35; assay type: cell-based; conditions: 5 μl of peptide, 10 to 300 μg/ml, FIG. 7
Procedure: (§1) FIG. 7. Antibacterial activities of purified beta defensins. Nutrient agar plates seeded with E. coli ML35 (.oval-solid.) or S. aureus 502A (.smallcircle.) were used to assess antibacterial activity of 13 neutrophil beta-defensins in addition to rabbit defensin NP-1, bactenecin dodecapeptide, and indolicidin. Activity is expressed as the diameter of clearing (mm) resulting from the application of 5 μl of peptide at the concentrations shown.
(§2) Antimicrobial assay. Escherichia coli ML35 and Staphylococcus aureus 502A were utilized in a radial diffusion assay recently described by Lehrer et al. (J. Immunol. Meth. 167-173 (1991)). Bacteria were grown to mid-log phase in trypticase soy broth (TSB), diluted into 10 ml of warm (43° C.) 1% agarose containing 3 mg of TSB, buffered with 10 mM sodium phosphate, pH 7.4. Five μl of each peptide solution was pipetted into wells formed with a 4 mm cork bored and allowed to incubate at 37° C. for 3-4 hours. Plates were then overlaid with 10 ml of sterile 1% agar containing 2×TSB. Following incubation for 18 to 24 hours, the diameter of the clear zone surrounding each well was measured using a magnified transilluminator.
(§3) Antimicrobial activity of beta-defensins. The antibacterial activity of each beta-defensin was evaluated using Staphylococcus aureus 502A and Escherichia coil ML35 as test organisms. Using a sensitive radial diffusion assay, each peptide was tested against the two bacterial organisms with beta-defensin concentrations ranging from 10 to 300 μg/ml. The data presented in FIG. 7 reveal the dose-dependent activity of each peptide as measured by the size of the clear zone surrounding the sample well. In most cases, the log of the peptide concentration was linearly related to the diameter of the growth-free zone. […] In most cases, the zone of clearing was greater against E. coli than S. aureus.

S. aureus = conditions: background, earlier report; cited from earlier work
E. coli = conditions: background, earlier report; cited from earlier work
[1] = tested on: Staphylococcus aureus 502A; assay: Radial diffusion antibacterial assay, S. aureus 502A; assay type: cell-based; conditions: 5 μl of peptide, 10 to 300 μg/ml, FIG. 7
Procedure: as §1, §2, §3

[2] = tested on: Cryptococcus neoformans 271A; assay: Fungicidal assay (colony counting), Cryptococcus neoformans 271A; assay type: cell-based; conditions: 60 minutes, FIG. 16; for fungicidal potency against C. neoformans: 0 to 50 μg/ml; for fungicidal effectiveness against C. neoformans at highest concentration: 50 μg/ml
Procedure: (§4) Candida albicans 16820 and Cryptococcus neoformans 271A were grown with shaking for 24 hours or days, respectively, at 37° C. in Sabouraud Dextrose Broth (SDB, DIFCO). To obtain midlogarithmic phase organisms, 1.0 ml of overnight culture was inoculated into 50 ml of SDB and incubated for 3 hours (C. albicans) or overnight (C. neoformans) with shaking. The cultures were centrifuged at 10,000 rpm for 10 minutes at 4° C., washed with cold 10 mM phosphate buffer, pH 7.4, and resuspended in cold buffer to a concentration of 1×10^7 cells/ml. The fungicidal assay mixture contained 30 1 of the phosphate buffer, 10 μl (1×10^5 cells) of the fungal stock suspension, and 10 μl of peptide giving final peptide concentrations of 0 to 50 μg/ml. Incubations were carried out at 37° C. for 60 minutes, after which a 30 μl aliquot was removed and diluted 10, 100, and 1000-fold. Duplicate 100 μl samples of each dilution were spread onto SDB plates and incubated for 18 hours at 37° C. Plates were incubated for 1 or 2 days at 37° C. Surviving organisms were quantitated by colony counting using a Darkfield Colony Counter (Quebec).

Candida albicans 16820 = assay type: cell-based; conditions: 0 to 50 μg/ml, 60 minutes, FIG. 15
Procedure: as §4

E. coli ML35 = assay: Bactericidal assay (colony counting), E. coli ML35; assay type: cell-based, Escherichia coli; conditions: below 50 μg/ml, 30 minutes, FIG. 14
Procedure: A 1:500 dilution of overnight cultures of E. coli ML35 and S. aureus 502A was incubated with shaking for 2.5 to 3 hours at 37° C. in trypticase soy broth (TSB). The bacteria were centrifuged at 10,000 rpm for 10 minutes at 4 c, washed with cold 10 mM sodium phosphate buffer, pH 7.4 and resuspended in cold phosphate buffer to a concentration of 1×10^7 cells/ml. Solutions of various concentrations of BNBDs were made up in 10 mM sodium phosphate buffer, pH 7.4. The bactericidal assay mixture contained 30 μl of the phosphate buffer, 10 μl (1×10^5 cells) of the bacterial stock solution, and 10 μl of peptide giving final peptide concentrations of 0 to 50 μg/ml. Incubations were carried out at 37° C. for 30 minutes, after which a 30 μl aliquot was removed and diluted 10, 100, and 1000-fold. Duplicate 100 μl samples of each dilution were spread into TSB plates and incubated for 18 hours at 37° C. Colonies were counted with the Darkfield Colony Counter (Quebec).

Question: For `CC[C@H](C)[C@H](N)C(=O)N[C@@H](CC(C)C)C(=O)N1CCC[C@H]1C(=O)N[C@@H](Cc1c[nH]c2ccccc12)C(=O)N[C@@H](CCCCN)C(=O)N[C@@H](Cc1c[nH]c2ccccc12)C(=O)N1CCC[C@H]1C(=O)N[C@@H](Cc1c[nH]c2ccccc12)C(=O)N[C@@H](Cc1c[nH]c2ccccc12)C(=O)N1CCC[C@H]1C(=O)N[C@@H](Cc1c[nH]c2ccccc12)C(=O)N[C@@H](CCCNC(=N)N)C(=O)N[C@@H](CCCNC(=N)N)C(N)=O` [indolicidin, reference compound], which “antibacterial activity (diameter of clearing) against E. coli” value (“antibacterial activity … against E. coli” for short) (Escherichia coli ML35) is on record?
Answer: the most active peptide against E. coli

Question: What about the “bactericidal activity against S. aureus” value (S. aureus) of the same molecule?
Answer: potent bactericidal activity

Question: What about the “bactericidal activity against E. coli” value (E. coli) of the same molecule?
Answer: potent bactericidal activity

Question: And the “antibacterial activity (diameter of clearing) against S. aureus” value (“antibacterial activity … against S. aureus” for short) [1]?
Answer: nearly as active as rabbit NP-1

Question: Which “antibacterial activity … against S. aureus” value [1] does the source give for “BNBD-1: bovine neutrophil beta-defensin 1, 38 residues, purified from neutrophil granules; sequence in FIG. 5 (SEQ ID NO: 1) (DFASCHTNGGICLPNRCPGHMIQIGICFRPRVKCCRSW; not fully specified (bridges); ends and bridges not checked)” here?
Answer: all but BNBD-1 and BNBD-5 were active

Question: Which “antibacterial activity … against E. coli” value (Escherichia coli ML35) does the source give for “BNBD-2: bovine neutrophil beta-defensin 2, 40 residues; identical to BNBD-3 without the pyroglutamyl-glycine extension (SEQ ID NO: 2) (VRNHVTCRINRGFCVPIRCPGRTRQIGTCFGPRIKCCRSW; disulfide 14-29, 19-37, 7-36)” here?
Answer: equivalent antibacterial activity

Question: What about the “antibacterial activity … against S. aureus” value [1] of the same molecule?
Answer: equivalent antibacterial activity

Question: With “BNBD-5: bovine neutrophil beta-defensin 5, 40 residues (SEQ ID NO: 5)” as the molecule, how does the “antibacterial activity … against S. aureus” value [1] read?
Answer: all but BNBD-1 and BNBD-5 were active

Question: For “BNBD-7: bovine neutrophil beta-defensin 7, 40 residues (SEQ ID NO: 7)”, which “antibacterial activity … against E. coli” value (Escherichia coli ML35) is on record?
Answer: most active beta-defensins

Question: And the “antibacterial activity … against S. aureus” value [1]?
Answer: most active beta-defensins

Question: Which “antibacterial activity … against E. coli” value (Escherichia coli ML35) does the source give for “BNBD-8: bovine neutrophil beta-defensin 8, 38 residues; identical to BNBD-9 without the pyroglutamyl-glycine extension (SEQ ID NO: 8)” here?
Answer: differ in antibacterial potency

Question: What about the “antibacterial activity … against S. aureus” value [1] of the same molecule?
Answer: differ in antibacterial potency

Question: What does the source list for “BNBD-9: bovine neutrophil beta-defensin 9, 40 residues, N-terminal pyroglutamyl (SEQ ID NO: 9) ([pGlu]GVRNFVTCRINRGFCVPIRCPGHRRQIGTCLGPQIKCCR; also: cyclic, type of ring not given here)”?
Answer: antibacterial activity (diameter of clearing) against E. coli (Escherichia coli ML35): most active beta-defensins; also recorded: the greater in vitro activity; antibacterial activity (diameter of clearing) against S. aureus [1]: most active beta-defensins; also recorded: the greater in vitro activity

Question: With “BNBD-11: bovine neutrophil beta-defensin 11, 38 residues (SEQ ID NO: 11) (GPLSCRRNGGVCIPIRCPGPMRQIGTCFGRPVKCCRSW; disulfide 12-27, 17-35, 5-34; ends not checked)” as the molecule, how does the “fungicidal potency against C. neoformans” value [2] read?
Answer: substantially less active

Question: What about the “fungicidal activity against C. albicans” value (Candida albicans 16820) of the same molecule?
Answer: completely inactive

Question: Which “antibacterial activity … against E. coli” value (Escherichia coli ML35) does the source give for “BNBD-12: bovine neutrophil beta-defensin 12, 38 residues; disulfide connectivities determined (SEQ ID NO: 12) (GPLSCGRNGGVCIPIRCPVPMRQIGTCFGRPVKCCRSW; disulfide 12-27, 17-35, 5-34)” here?
Answer: most active beta-defensins; also recorded: approximately equal

Question: And the “antibacterial activity … against S. aureus” value [1]?
Answer: most active beta-defensins; also recorded: approximately equal

Question: What does the source list for “H-SGISGPLSCGRNGGVCIPIRCPVPMRQIGTCFGRPVKCCRSW (disulfide 9-38, 16-31, 21-39) [BNBD-13]”?
Answer: antibacterial activity (diameter of clearing) against E. coli (Escherichia coli ML35): most active beta-defensins; also recorded: approximately equal; fungicidal effectiveness against C. neoformans at highest concentration [2]: equally effective; antibacterial activity (diameter of clearing) against S. aureus [1]: most active beta-defensins; also recorded: approximately equal

Question: For “[pGlu]GVRNHVTCRINRGFCVPIRCPGRTRQIGTCFGPRIKCCRSW (disulfide 9-38, 16-31, 21-39) [BNBD-3]”, which “antibacterial activity … against E. coli” value (Escherichia coli ML35) is on record?
Answer: equivalent antibacterial activity

Question: What about the “fungicidal potency against C. neoformans” value [2] of the same molecule?
Answer: the most potent

Question: What about the “bactericidal potency against E. coli at lower concentrations” value (E. coli ML35) of the same molecule?
Answer: the greatest

Question: What about the “antibacterial activity … against S. aureus” value [1] of the same molecule?
Answer: equivalent antibacterial activity

Question: Which “fungicidal effectiveness against C. neoformans at highest concentration” value [2] does the source give for “[pGlu]RVRNPQSCRWNMGVCIPFLCRVGMRQIGTCFGPRVPCCRR (disulfide 9-38, 16-31, 21-39) [BNBD-4]” here?
Answer: equally effective
